Earlier results on four molecules are cited in US5763435A, “Sulfate conjugates of ursodeoxycholic acid, and their beneficial use in inflammatory disorders” (priority 1995, dated 1998).

For data set [1] the following is noted: rat, in vivo; cited from earlier work.
The next data set has as its system colonic epithelial cell. As to conditions: in vitro; cited from earlier work.

For the molecule `C[C@H](CCC(=O)NCCS(=O)(=O)O)[C@H]1CC[C@H]2[C@@H]3[C@H](OS(=O)(=O)O)C[C@@H]4C[C@H](OS(=O)(=O)O)CC[C@]4(C)[C@H]3CC[C@]12C` [taurochenodeoxycholic acid disulfates], the “Metabolism to 3α,7α-disulfate, 6β-hydroxy 5β-cholanoic acid” value in data set [1] is 90%.

Consider `C[C@H](CCC(=O)O)[C@H]1CC[C@H]2[C@@H]3CC[C@@H]4C[C@H](O)CC[C@]4(C)[C@H]3C[C@H](O)[C@]12C` [deoxycholic, deoxycholic acid], for which the “Effect on colonic epithelial cell proliferation (in words)” value in the data set on colonic epithelial cell is given as “comitogenic”.

For `C[C@H](CCC(=O)O)[C@H]1CC[C@H]2[C@@H]3CC[C@@H]4C[C@H](O)CC[C@]4(C)[C@H]3CC[C@]12C` [lithocholic acids, lithocholic acid], the “Effect on colonic epithelial cell proliferation (in words)” value in the data set with colonic epithelial cell is “comitogenic”.

Regarding `C[C@H](CCC(=O)NCC(=O)O)[C@H]1CC[C@H]2[C@@H]3[C@H](OS(=O)(=O)O)C[C@@H]4C[C@H](OS(=O)(=O)O)CC[C@]4(C)[C@H]3CC[C@]12C` [glycochenodeoxycholic acid disulfates], in data set [1], the “Metabolism to 3α,7α-disulfate, 6β-hydroxy 5β-cholanoic acid” value is 90%.
